Measured values published in publication PMC7177849, “Gut Microbial Catabolites of Tryptophan Are Ligands and Agonists of the Aryl Hydrocarbon Receptor: A Detailed Characterization” (International Journal of Molecular Sciences, 2020).
Where two headings read alike, the source gives them in different places.

Tests used:
murine AhR = target: T1, murine AhR (Mus musculus, UniProt P30561); assay: Competitive radio-ligand ([3H]-TCDD) AhR binding assay, cytosols from Hepa1c1c7 cells; settings: Table 1 summary class
T1 sequence (P30561 10-805): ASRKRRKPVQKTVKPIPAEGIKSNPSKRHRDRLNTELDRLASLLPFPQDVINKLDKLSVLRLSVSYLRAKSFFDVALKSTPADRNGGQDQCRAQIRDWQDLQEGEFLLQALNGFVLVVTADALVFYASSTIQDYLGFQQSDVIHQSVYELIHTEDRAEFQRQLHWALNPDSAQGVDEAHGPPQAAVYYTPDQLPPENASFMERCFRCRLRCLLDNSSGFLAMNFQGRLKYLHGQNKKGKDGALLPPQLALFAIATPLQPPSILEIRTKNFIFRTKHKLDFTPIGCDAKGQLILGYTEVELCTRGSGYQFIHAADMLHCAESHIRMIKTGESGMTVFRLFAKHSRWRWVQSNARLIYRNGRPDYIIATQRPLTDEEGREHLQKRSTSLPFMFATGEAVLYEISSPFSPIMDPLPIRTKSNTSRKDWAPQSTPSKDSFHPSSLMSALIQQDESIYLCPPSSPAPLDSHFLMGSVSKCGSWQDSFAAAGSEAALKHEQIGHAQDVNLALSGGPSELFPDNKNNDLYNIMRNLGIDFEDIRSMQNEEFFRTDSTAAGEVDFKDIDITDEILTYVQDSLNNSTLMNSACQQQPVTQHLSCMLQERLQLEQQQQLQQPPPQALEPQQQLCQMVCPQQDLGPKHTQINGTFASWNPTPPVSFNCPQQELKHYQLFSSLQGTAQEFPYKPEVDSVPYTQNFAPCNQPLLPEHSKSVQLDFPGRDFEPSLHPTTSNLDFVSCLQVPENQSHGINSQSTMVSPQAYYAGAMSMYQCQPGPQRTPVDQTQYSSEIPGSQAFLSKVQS
Experimental: Figure 2 Competitive radio-ligand binding assay. Cytosols from Hepa1c1c7 cells were incubated with vehicle (negative control; 0.1% V/V), FICZ (positive control; 0.01 nM – 10 nM), TCDF (non-specific binding; 200 nM) and increasing doses of MICT in the presence of 2 nM [^3H]-TCDD. The specific binding of [^3H]-TCDD was determined as a difference between total and non-specific (200 nM; TCDF) reactions (value for vehicle DMSO; 0.1% V/V = corresponds to specific binding of [^3H]-TCDD = 100%). At least two independent experiments were performed and the incubations were done in triplicates in each experiment (technical replicates).
Ligand binding assay was performed using cytosolic protein extracts from murine Hepa1c1c7 cells as described. Briefly, aliquots of protein (2 mg/mL) were incubated at the room temperature for two (2) h with 2 nM [^3H]-TCDD in the presence of DMSO (vehicle control), FICZ (positive control), 200 nM TCDF (non-specific binding) or increasing concentration of MICT. After the incubation, the hydroxyapatite slurry was added to the samples and the suspension was incubated on ice and washed three times with HEGT buffer. The hydroxyapatite pellet was re-suspended in scintillation cocktail, and radioactivity was determined in a liquid scintillation counter. The specific binding of [^3H]-TCDD was determined by subtracting the radioactivity of non-specific reaction (TCDF) from total radioactivity. The values of IC50 were calculated where appropriate.

CYP1A1 mRNA = CYP1A1 mRNA (qRT-PCR) in wild-type and AhR-knockout HT-29 cells; format: cell-based, human
Experimental: Figure 4 Effects of MICT on the induction of CYP1A1 mRNA in human hepatic and intestinal cells. Cultured cells were incubated for 24 h with the vehicle (DMSO; 0.1% v/v) and tested MICT in the presence or absence of TCDD (10 nM). RT-PCR determined the level of CYP1A1 mRNA, and the data were normalized per GAPDH mRNA level. […] (A,B) Experiments in three consecutive passages of human colon adenocarcinoma cell line LS180 in the absence (A) and the presence (B) of 10 nM TCDD. The bar graphs show the percentage of maximal induction attained by TCDD and are expressed as the mean ± SD. (C) Experiments in three consecutive passages of wild-type (AhR^+/^+) and AhR-knockout (AhR^−/^−) HT-29 cells. […] (D) Primary human hepatocytes from three different donors (LH79, Hep2201020, and Hep2201021).
CRISPR/Cas9 knockout of the AhR in HT-29 cells: A CRISPR/Cas9 expression vector with GFP, pSpCas9(BB)-2A-GFP (PX458) (#48138; Addgene, Cambridge, MA, USA) was used for integration of the gRNA complementary to exon 2 of the AHR gene. 4 × 10^5 cells were seeded in a 6-well plate and transfected (at 60–70% confluence) with a mixture of vector DNA and Lipofectamine™ 3000 (Life Technologies) according to the manufacturer’s instructions. The transfected cells positive for GFP signal were sorted using BD Aria II Sorp (Becton Dickinson, Franklin Lakes, NJ, USA), in a single cell suspension into a 96-well plate. DNA isolation was performed by a QIAamp DNA Mini Kit (Qiagen, Hilden, Germany) according to the manufacturer’s instructions. The function of the CRISPR/Cas9 system was verified by the SURVEYOR mutation detection kit (Integrated DNA Technologies, Leuven, Belgium) according to the manufacturer’s instructions. The positive clones were checked for AhR expression by Western Blotting. PCR amplification products were purified using the QIAquick PCR Purification Kit (Qiagen) and integrated into a plasmid vector (pGEM_T Easy Vector Systems, Promega), and E.coli DHP α (MAX Efficiency DH5a Competent Cells, Thermo Fisher; Waltham, MA, USA) were transformed according to manufacturer’s instructions, DNA was isolated, and deletions in the AhR gene sequences were verified by sequencing (Mix2seq, Eurofins Genomic, Luxembourg).
Total RNA was isolated using TRI Reagent® (Sigma Aldrich, Prague, Czech Republic). cDNA was synthesized using M-MuLV reverse transcriptase (New England Biolabs, Ipswich, MA, USA). The reverse transcription was performed at 42 °C for 60 min using Random Primers 6 (New England Biolabs, Ipswich, MA, USA) and diluted in a 1:4 ratio by PCR-grade water. The quantitative reverse transcriptase-polymerase chain reaction (qRT-PCR) was performed on the Lightcycler 480 II using the LightCycler ® 480 Probes Master (Roche Diagnostic Corporation, Prague, Czech Republic). The levels of CYP1A1 and GAPDH mRNAs were determined using the Universal Probe Library probes (UPL; Roche Diagnostic Corporation, Prague, Czech Republic) in combination with specific primers, using a protocol described elsewhere. All measurements were performed in triplicates, and the gene expression was normalized to glyceraldehyde-3-phosphate dehydrogenase (GAPDH) as a house-keeping gene. The data were processed using the delta-delta Ct method and expressed as a fold induction over the negative control (DMSO) or as a percentage of the positive control (maximal induction by TCDD).

[1] = colon HT-29 cells, wild-type, 24 h

Structure (SMILES) | Affinity (IC50) (murine AhR) | induction of CYP1A1 mRNA (CYP1A1 mRNA; [1]) | induction of CYP1A1 mRNA (CYP1A1 mRNA) | CYP1A1 induction (CYP1A1 mRNA; AhR knock-out HT-29 variant, 24 h)
O=Cc1c[nH]c2ccccc12 [IA, indole-3-aldehyde] | no | – | – | –
O=C(O)C(O)Cc1c[nH]c2ccccc12 (stereo not shown) [ILA, indole-3-lactate] | no | – | – | –
O=C(O)C(=O)Cc1c[nH]c2ccccc12 [IPY, indole-3-pyruvate] | low | strong induction | – | –
NC(=O)Cc1c[nH]c2ccccc12 [IAD, indole-3-acetamide] | low | strong induction | – | –
c1ccc2[nH]ccc2c1 [IND, indole] | very low | – | weaker inducers | –
O=C(O)/C=C/c1c[nH]c2ccccc12 [IAC, indole-3-acrylate] | very low | strong induction | – | –
NCCc1c[nH]c2ccccc12 [TA, tryptamine] | no | weaker inducers | – | –
Clc1cc2c(cc1Cl)Oc1cc(Cl)c(Cl)cc1O2 [TCDD, 2,3,7,8-tetrachlorodibenzo-p-dioxin, reference compound] | – | – | – | nullified
Cc1c[nH]c2ccccc12 [3MI, skatole] | low | weaker inducers | – | –
OCCc1c[nH]c2ccccc12 [IET, indole-3-ethanol] | very low | – | – | –
